# Experiments:
# M3 muscarinic receptor = M3 muscarinic receptor (Homo sapiens, UniProt P20309); assay: inhibition of forskolin-stimulated cAMP, M3 CHO cells (M3Gi); format: cell-based; set-up: host or cells: CHO cells, stably transfected; conditions: for Emax: CHO; for Emax / EC50 / τ / RAi / Kd: M3Gi (↓cAMP); for Emax / EC50 / τ / Kd: Table 8; for effect on forskolin-stimulated production of cAMP: M3, non-preferential response, in words; for RAi: Table 8, relative to carbachol; for Kd: read-out: pKA (converted)
# Protocol: (§1) Since activation of phospholipase C (PLC) via M2 and M4 receptors is weak, cells were transferred with G15 G-protein to facilitate coupling.
# (§2) To determine level of cAMP, cells in suspension were pre-incubated for 1 h with 0.4 μM [^3H]adenine, washed, and incubated for 10 min in the presence of isobutylmethylxanthine and 10 μM forskolin. […] Incubation was ended by addition of 0.2 ml of 2.5 M HCl to the samples. Samples were applied to alumina columns (1.5 g of alumina per column), washed with 2 ml ammonium acetate (pH=7.0) and eluted from columns with 4 ml ammonium acetate and measured by liquid scintillation spectrometry. […] The incubation was stopped by addition of 0.5 ml of chloroform methanol HCl mixture (2:1:0.1). After separation of water and organic phases, 0.6 ml of water phase was applied to Dowex columns (1.5 g of Dowex per column), washed by 20 ml of 60 mM ammonium formate/5 mM sodium borate buffer and eluted from columns with 4 ml of 1M ammonium formate/0.1 formic acid buffer and measured by liquid scintillation spectrometry.
# (§3) Measurements of the production of cAMP and inositol phosphates: Levels of second messengers cAMP and inositol phosphates were determined in radiochemical chromatography assays as described previously. To determine level of cAMP, cells in suspension were pre-incubated for 1 h with 0.4 μM [^3H]adenine, washed, and incubated for 10 min in the presence of isobutylmethylxanthine and 10 μM forskolin. […] Incubation was ended by addition of 0.2 ml of 2.5 M HCl to the samples. Samples were applied to alumina columns (1.5 g of alumina per column), washed with 2 ml ammonium acetate (pH=7.0) and eluted from columns with 4 ml ammonium acetate and measured by liquid scintillation spectrometry. […] For this purpose, new CHO cell lines stably expressing promiscuous G15 G-protein and M2 or M4 receptor were generated by transfection with pCMV/hygro vector and hygromycin selection. To determine the rate of formation of inositol phosphates IPX, suspended cells were pre-incubated with 0.1 μM [^3H]myo-inositol for 60 min, washed, and incubated with 10 mM LiCl for 15 min. […] The incubation was stopped by addition of 0.5 ml of chloroform methanol HCl mixture (2:1:0.1). After separation of water and organic phases, 0.6 ml of water phase was applied to Dowex columns (1.5 g of Dowex per column), washed by 20 ml of 60 mM ammonium formate/5 mM sodium borate buffer and eluted from columns with 4 ml of 1M ammonium formate/0.1 formic acid buffer and measured by liquid scintillation spectrometry.
# (§4) For bi-phasic response, curves were inhibitory and stimulatory phase were fitted separately. Operational Model of Functional Agonism
# (§5) [formula] where y is functional response at concentration of tested compound x, EMAX is maximal response of the system, KA is equilibrium dissociation constant and nH is slope factor. Eq. 5 was fitted to data from functional experiments. Eq. 5 was fitted to data by the two-step procedure described earlier. […] In the second step, Eq. 5 with EMAX fixed to the value determined in the first step was fitted to individual experimental data sets. Relative Intrinsic Activity
# (§6) Muscarinic receptors are also able to stimulate non-preferential signalling pathways.
# M1 muscarinic receptor = molecular target: T1, M1 muscarinic receptor (Homo sapiens, UniProt P11229); assay: inhibition of forskolin-stimulated cAMP, M1 CHO cells (M1Gi); format: cell-based; set-up: host or cells: CHO cells, stably transfected; conditions: for Emax: CHO; for Emax / EC50 / τ / RAi / Kd: M1Gi (↓cAMP); for Emax / EC50 / τ / Kd: Table 8; for effect on forskolin-stimulated production of cAMP: M1, non-preferential response, in words; for RAi: Table 8, relative to carbachol; for Kd: read-out: pKA (converted)
# T1 sequence (P11229 1-460): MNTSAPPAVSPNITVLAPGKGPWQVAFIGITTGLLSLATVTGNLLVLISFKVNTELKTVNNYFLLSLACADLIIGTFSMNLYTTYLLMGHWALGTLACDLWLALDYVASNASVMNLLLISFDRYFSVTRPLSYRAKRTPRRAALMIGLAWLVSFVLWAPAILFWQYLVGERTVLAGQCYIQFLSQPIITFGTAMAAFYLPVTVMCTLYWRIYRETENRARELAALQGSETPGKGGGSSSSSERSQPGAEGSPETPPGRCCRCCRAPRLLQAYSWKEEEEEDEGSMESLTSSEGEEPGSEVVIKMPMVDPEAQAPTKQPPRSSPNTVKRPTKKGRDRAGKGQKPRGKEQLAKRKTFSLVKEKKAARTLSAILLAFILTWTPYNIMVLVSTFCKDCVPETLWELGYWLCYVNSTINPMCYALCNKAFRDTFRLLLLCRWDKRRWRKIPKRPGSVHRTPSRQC
# Protocol: as §1, §2, §3, §4, §5, §6
# Chain of M3 muscarinic receptor (P20309 whole entry): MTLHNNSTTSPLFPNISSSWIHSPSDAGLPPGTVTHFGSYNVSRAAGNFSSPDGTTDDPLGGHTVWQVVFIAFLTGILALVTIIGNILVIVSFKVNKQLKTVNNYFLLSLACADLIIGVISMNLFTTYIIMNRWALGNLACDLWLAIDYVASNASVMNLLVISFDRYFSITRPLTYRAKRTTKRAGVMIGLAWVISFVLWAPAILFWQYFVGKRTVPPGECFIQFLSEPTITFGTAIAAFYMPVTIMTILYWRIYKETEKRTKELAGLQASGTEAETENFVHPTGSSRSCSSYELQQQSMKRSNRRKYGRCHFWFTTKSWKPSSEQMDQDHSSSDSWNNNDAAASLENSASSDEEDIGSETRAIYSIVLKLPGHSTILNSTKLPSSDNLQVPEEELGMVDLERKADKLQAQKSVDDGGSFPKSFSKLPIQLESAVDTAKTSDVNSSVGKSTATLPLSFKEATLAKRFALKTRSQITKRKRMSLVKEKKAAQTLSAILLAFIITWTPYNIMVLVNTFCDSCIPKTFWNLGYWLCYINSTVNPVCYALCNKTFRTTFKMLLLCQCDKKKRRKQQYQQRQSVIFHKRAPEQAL
SMILES,Emax (M3 muscarinic receptor),effect on forskolin-stimulated production of cAMP (M3 muscarinic receptor),EC50 (M3 muscarinic receptor),τ (M3 muscarinic receptor),RAi (M3 muscarinic receptor),Kd (M3 muscarinic receptor),Emax (M1 muscarinic receptor),effect on forskolin-stimulated production of cAMP (M1 muscarinic receptor),EC50 (M1 muscarinic receptor),τ (M1 muscarinic receptor),RAi (M1 muscarinic receptor),Kd (M1 muscarinic receptor)
"C[N+]1(Cc2cccs2)CC=CCC1.[I-] (stereo not drawn) [Compound 7A, 1-methyl-1-[(thiophen-2-yl)methyl]-1,2,3,6-tetrahydropyridin-1-ium iodide]",16 ± 1%,inhibited cAMP production,8.71 µM,0.22 ± 0.02,+inf.,10 µM,30 ± 3%,inhibited cAMP production,7.94 µM,0.52 ± 0.05,+inf.,12.6 µM
"C1=CCN(Cc2cccs2)CC1.Cl [Compound 6A, 1-[(thiophen-2-yl)methyl]-1,2,3,6-tetrahydropyridin-1-ium chloride]",13 ± 1%,inhibited cAMP production,7.76 µM,0.17 ± 0.02,+inf.,10 µM,26 ± 2%,inhibited cAMP production,11.7 µM,0.42 ± 0.04,+inf.,15.8 µM

# Reference: US11591323B2, “Muscarinic agonists as non-steroidal and non-opioid analgesics and methods of use thereof” (Barry University, priority 2019, dated 2023)
